The record followed here is patent US20250179094A1, “TGF-B INHIBITOR COMPOUND AND USE THEREOF” (Medinno Pharmaceutical Technology (Zhuhai) Co., Ltd., priority 2022, published 2025).

The target of this test is human TGFβR1 (Homo sapiens (Human), UniProt P36897). The test can be described thus: TGFβR1 kinase activity assay (ADP-Glo method). To be noted: ATP 5 uM, TGFβR1tide substrate, 60 minutes at room temperature. The test is classed as biochemical. How it is done: The principle of the activity assay was that TGFβR1 phosphorylates the substrate TGFβR1tide, consuming ATP in the process. […] The specific experimental steps were as follows. Compounds were diluted 4-fold in DMSO in a dilution plate, with the final starting concentration of the compounds being 10 μM, across 10 concentration gradient points. The compounds were then further diluted 50-fold into the kinase reaction buffer and incubated on a shaker for 20 minutes. Kinase was formulated with an enzyme reaction buffer. 2 μl kinase was added to each well of the reaction plate. 1 μl of the compound diluted in buffer was added to each well, and then the plate was sealed with a sealing membrane and centrifuged at 1000 g for 30 seconds, leaving it at room temperature for 10 minutes. Solutions of TGFβR1tide and ATP were prepared with the kinase reaction buffer, and 2 μL of the TGFβR1tide/ATP solution was added to the reaction plate. The plate was sealed with a sealing film and centrifuged at 1000 g for 30 seconds. It was allowed to react at room temperature for 60 minutes. Subsequently, 4 μL of ADP-Glo was transferred to a 384-well reaction plate and centrifuged at 1000 rpm/min for 1 minute, followed by incubation at 25° C. for 40 minutes. Then, 8 μL of Detection solution was transferred to the 384-well reaction plate and centrifuged at 1000 rpm/min for 1 minute, after which it was incubated at 25° C. for 40 minutes. The RLU (Relative Luminescence Unit) signal was read using a BMG microplate reader, which was used to characterize the degree of kinase activity.
human TGFβR1, sequence (P36897 34-503): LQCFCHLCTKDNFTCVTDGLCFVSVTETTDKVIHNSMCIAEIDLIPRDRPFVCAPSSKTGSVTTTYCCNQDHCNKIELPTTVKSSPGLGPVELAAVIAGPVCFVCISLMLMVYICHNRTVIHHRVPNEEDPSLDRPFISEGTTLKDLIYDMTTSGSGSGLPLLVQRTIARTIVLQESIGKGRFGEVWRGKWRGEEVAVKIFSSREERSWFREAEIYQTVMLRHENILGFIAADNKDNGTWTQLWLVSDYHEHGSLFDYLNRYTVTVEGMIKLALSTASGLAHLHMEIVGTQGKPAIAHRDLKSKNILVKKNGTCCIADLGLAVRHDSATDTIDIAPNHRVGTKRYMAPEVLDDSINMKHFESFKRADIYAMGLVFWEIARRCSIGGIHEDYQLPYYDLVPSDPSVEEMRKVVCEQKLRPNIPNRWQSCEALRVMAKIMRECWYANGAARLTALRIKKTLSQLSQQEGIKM
3.1 The inhibition rate was calculated as follows: inhibition rate of compound (% inh)=100%−(compound−positive control)/(negative control−positive control)*100%.
The IC50 (half inhibition concentration) of a compound was obtained using the following non-linear fitting equation, wherein data analysis was performed using Graphpad 7.0 software.
X: log value of compound concentration; and Y: inhibition rate (% inhibition)
A general note: ADP-Glo turns the ADP formed in a reaction into a luminescent signal.
In turn, `Cc1cccc(-c2nn3c(c2-c2ccnc(-c4nc5c([nH]4)CN(S(=O)(=O)C(C)C)C5)c2)CCC3)n1` [Compound 69, 5-(Isopropylsulfonyl)-2-(4-(2-(6-methylpyridin-2-yl)-5,6-dihydro-4H-pyrrolo[1,2-b]pyrazol-3-yl)pyridin-2-yl)-1,4,5,6-tetrahydropyrrolo[3,4-d]imidazole] had an IC50 of 1.3 nM.

In the case of `Cc1cccc(-c2nc3n(c2-c2ccnc(-c4nc5c([nH]4)CN(C(=O)C4CC(O)C4)C5)c2)CCC3)n1` (stereo not shown) [Compound 10, (3-Hydroxycyclobutyl)(2-(4-(2-(6-methylpyridin-2-yl)-6,7-dihydro-5H-pyrrolo[1,2-a]imidazol-3-yl)pyridin-2-yl)-4,6-dihydropyrrolo[3,4-d]imidazol-5(1H)-yl)ketone], half-maximal inhibition (IC50) was put at 2.2 nM.

Turning to `Cc1cccc(-c2n[nH]cc2-c2ccnc(-c3nc4c([nH]3)CN(C(=O)N(C)C)C4)c2)n1` [Compound 59, N,N-Dimethyl-2-(4-(3-(6-methylpyridin-2-yl)-1H-pyrazol-4-yl)pyridin-2-yl)-4,6-dihydro pyrrolo[3,4-d]imidazol-5(1H)-carboxamide], inhibition was half-maximal at 9.2 nM (IC50).

For the compound `Cc1cccc(-c2nn(C)cc2-c2ccnc(-c3nc4c([nH]3)CN(S(C)(=O)=O)C4)c2)n1` [Compound 39, 2-[4-(1-Methyl-3-(6-methylpyridin-2-yl)-1H-pyrazol-4-yl)pyridin-2-yl]-5-(methylsulfonyl)-1,4,5,6-tetrahydropyrrolo[3,4-d]imidazole], it took 2 nM to reach half-maximal inhibition (IC50).

Take `Cc1cccc(-c2nc3n(c2-c2ccnc(-c4nc5c([nH]4)CNCC5)c2)CCC3)n1` [Compound 75, 2-(4-(2-(6-Methylpyridin-2-yl)-6,7-dihydro-5H-pyrrolo[1,2-a]imidazol-3-yl)pyridin-2-yl)-4,5,6,7-tetrahydro-3H-imidazolo[4,5-c]pyridine]: the IC50 stood at 5.6 nM.

With `Cc1cccc(-c2nc3n(c2-c2ccnc(-c4nc5c([nH]4)CN(C4CCC(O)CC4)C5)c2)CCC3)n1` (stereo not shown) [Compound 25, 4-(2-(4-(2-(6-Methylpyridin-2-yl)-6,7-dihydro-5H-pyrrolo[1,2-a]imidazol-3-yl)pyridin-2-yl)-4,6-dihydropyrrolo[3,4-d]imidazol-5(1H)-yl)cyclohexan-1-ol], the IC50 amounted to 25 nM.

In the case of `CCS(=O)(=O)N1Cc2nc(-c3cc(-c4cn(C)nc4-c4cccc(C)n4)ccn3)[nH]c2C1` [Compound 52, 5-(Ethylsulfonyl)-2-[4-(1-methyl-3-(6-methylpyridin-2-yl)-1H-pyrazol-4-yl)pyridin-2-yl]-1,4,5,6-tetrahydropyrrolo[3,4-d]imidazole], the IC50 stood at 2.1 nM.

`Cc1cccc(-c2nc3n(c2-c2ccnc(-c4nc5c([nH]4)CN(S(C)(=O)=O)C5)c2)CCC3)n1` [Compound 9, 2-(4-(2-(6-Methylpyridin-2-yl)-6,7-dihydro-5H-pyrrolo[1,2-a]imidazol-3-yl)pyridin-2-yl)-5-(methylsulfonyl)-1,4,5,6-tetrahydropyrrolo[3,4-d]imidazole] had an IC50 of 5.4 nM.

`CNC(=O)N1Cc2nc(-c3cc(-c4c(-c5cccc(C)n5)nc5n4CCC5)ccn3)[nH]c2C1` [Compound 28] had an IC50 of 19 nM.

The compound `COC(=O)N1Cc2nc(-c3cc(-c4c(-c5cccc(C)n5)nc5n4CCC5)ccn3)[nH]c2C1` [Compound 30, Methyl 2-(4-(2-(6-Methylpyridin-2-yl)-6,7-dihydro-5H-pyrrolo[1,2-alimidazol-3-yl)pyridin-2-yl)-4,6-dihydropyrrolo[3,4-d]imidazol-5(1H)-carboxylate] yielded an IC50 of 5.7 nM.

For `Cc1cccc(-c2nc3n(c2-c2ccnc(-c4nc5c([nH]4)CN(C)C5)c2)CCC3)n1` [Compound 3, 5-methyl-2-(4-(2-(6-methylpyridin-2-yl)-6,7-dihydro-5H-pyrrolo[1,2-a]imidazol-3-yl)pyridin-2-yl)-1,4,5,6-tetrahydropyrrolo[3,4-d]imidazole], the IC50 worked out at 7.4 nM.

`Cc1cccc(-c2nn(Cc3ccccc3)cc2-c2ccnc(-c3nc4c([nH]3)CN(S(C)(=O)=O)C4)c2)n1` [Compound 48, 2-[4-(1-Benzyl-3-(6-methylpyridin-2-yl)-1H-pyrazol-4-yl)pyridin-2-yl]-5-(methylsulfonyl)-1,4,5,6-tetrahydropyrrolo[3,4-d]imidazole] displayed an IC50 of 1.6 nM.

`Cc1cccc(-c2n[nH]cc2-c2ccnc(-c3nc4c([nH]3)CNCC4)c2)n1` [Compound 76]: half-maximal inhibition (IC50) was put at 13 nM.

Turning to `CCN(C)C(=O)N1Cc2nc(-c3cc(-c4c(-c5cccc(C)n5)nc5n4CCC5)ccn3)[nH]c2C1` [Compound 32, N-Ethyl-N-methyl-2-(4-(2-(6-methylpyridin-2-yl)-6,7-dihydro-5H-pyrrolo[1,2-a]imidazol-3-yl)pyridin-2-yl)-4,6-dihydropyrrolo[3,4-d]imidazol-5(1H)-carboxamide], the IC50 is 2.3 nM.

In the case of `Cc1cccc(-c2nc3n(c2-c2ccnc(-c4nc5c([nH]4)CN(C(=O)N(C)C)C5)c2)CCC3)n1` [Compound 29, N,N-Dimethyl-2-(4-(2-(6-methylpyridin-2-yl)-6,7-dihydro-5H-pyrrolo[1,2-a]imidazol-3-yl)pyridin-2-yl)-4,6-dihydropyrrolo[3,4-d]imidazol-5(1H)-carboxamide], half-maximal inhibition (IC50) required 0.18 nM.

The compound `Cc1cccc(-c2nn(CC3CC(O)C3)cc2-c2ccnc(-c3nc4c([nH]3)CN(S(C)(=O)=O)C4)c2)n1` (stereo not shown) [Compound 49, 3-((3-(6-Methylpyridin-2-yl)-4-(2-(5-(methylsulfonyl)-1,4,5,6-tetrahydropyrrolo[3,4-d]imidazol-2-yl)pyridin-4-yl)-1H-pyrazol-1-yl)methyl)cyclobutanol] came in with an IC50 of 3 nM.

With `CC(=O)N1Cc2nc(-c3cc(-c4c(-c5cccc(C)n5)nc5n4CCC5)ccn3)[nH]c2C1` [Compound 1, 1-(2-(4-(2-(6-methylpyridin-2-yl)-6,7-dihydro-5H-pyrrolo[1,2-a]imidazol-3-yl)pyridin-2-yl)-4,6-dihydropyrrolo[3,4-d]imidazol-5(1H)-yl)ethan-1-one], the IC50 was found to be 21 nM.

For `Cc1cccc(-c2nc3n(c2-c2ccnc(-c4nc5c([nH]4)CN(CC4CC(O)C4)C5)c2)CCC3)n1` (stereo not shown) [Compound 26, 3-((2-(4-(2-(6-Methylpyridin-2-yl)-6,7-dihydro-5H-pyrrolo[1,2-a]imidazol-3-yl)pyridin-2-yl)-4,6-dihydropyrrolo[3,4-d]imidazol-5(1H)-yl)methyl)cyclobutanol], the IC50 is 4.1 nM.

On to `Cc1cccc(-c2nc3n(c2-c2ccnc(-c4nc5c([nH]4)CN(CC(C)O)C5)c2)CCC3)n1` (stereo not shown) [Compound 12, 1-(2-(4-(2-(6-Methylpyridin-2-yl)-6,7-dihydro-5H-pyrrolo[1,2-a]imidazol-3-yl)pyridin-2-yl)-4,6-dihydropyrrolo[3,4-d]imidazol-5(1H)-yl)propan-2-ol], for which the IC50 was determined as 4.3 nM.

One may read the IC50 as the point on the concentration scale where inhibition reaches its midpoint.
